Data set [1] has as its system human embryonic stem cell derived neural stem cells (NSCs). Description: Neural stem cell proliferation assay (neurogenesis assay, ATP levels by CellTiterGlo). The data set is classed as cell-based. The settings on record: compound concentration at which 150% activity of control (100%) is reached, NSC proliferation by ATP (CellTiterGlo) after 4 days incubation, dose response 8 μM to 8 nM. The protocol:
Neural Stem Cell Proliferation Assay
Neurogenic properties of small molecules are determined based on the proliferation of human embryonic stem cell derived neural stem cells (NSCs) which were derived via a dual smad inhibition as previously described (Chambers, S. M., et al., Highly efficient neural conversion of human ES and iPS cells by dual inhibition of SMAD signaling, Nature biotechnology, 2009. 27(3): p. 275-80.)
Compounds respond is measured by the increase in cells based on ATP levels (Promega:CellTiterGlo®) after an incubation period of 4 days.
NSCs are thawed and expanded over 3 passages. On the 14th day, NSCs are seeded in Polyornithin/Laminin coated 384 well plates at a cell density of 21,000 cells/cm^2 in a media volume of 38 μl.
4 hours after cell seeding, compound solutions are added at a volume of 2 μl. Stock solutions of the compounds (water, 5% DMSO) are diluted to obtain a dose response (11 points, dilution factor is 2), ranging from 8 μM to 8 nM. Controls are run to consistently determine the neurogenic properties of the cells: • Negative (neutral) control is cell culture Media (final DMSO concentration: 0.25%). • Positive controls are: • 1. cell culture Media+100 ng/ml FGF2 (final DMSO concentration: 0.1%) • 2. cell culture Media+20 ng/ml EGF (final DMSO concentration: 0.1%) • 3. cell culture Media+100 ng/ml Wnt3a (final DMSO concentration: 0.1%)
After 4 days incubation at 37° C., 5% CO2, the amount of ATP per well is quantified. The ATP concentration is proportional to the cell number. ATP is quantified by using the Promega CellTiterGlo® kit. The CellTiterGlo® reagents contain a cell lysis buffer, a thermo stable luciferase (UltraGlo™ recombinant luciferase), magnesium and luciferin. Luciferin reacts with ATP producing oxyluciferin, AMP and light. The luminescence signal is proportional to the ATP content.
The value of negative (neutral) control is determined for each assay plate by taking the average of 16 negative control wells. The neurogenic compound response is calculated for each compound as (compound/Negative Control)*100.
The values of EC150 from the dose response curve are determined for each test compound. The EC150 is the compound concentration at which 150% activity of control (100%) is reached.
A general note: ATP-based viability assays read luminescence as a measure of living cells.

Setting [2] is: Homo sapiens, Neural stem cell, 96 h.

The molecule “5-Cyano-7-3,4-difluorophenyl)-1H-indole-2-carboxamide [Example 33]” had an EC (150% of control) in data set [1] of 0.056 µM.

On to `Cc1c(C(N)=O)n(C)c2c(-c3ccc(Cl)cc3)cc(C#N)cc12` [Example 1, 7-(4-Chloro-phenyl)-5-cyano-1,3-dimethylindole-2-carboxamide], for which the melting point (as a rule, the temperature of the solid-liquid transition) was found to be 237 °C. Besides, the EC (150% of control) in data set [1] (setting [2]) was determined as 0.14 µM. In the same order, the values of `Cn1c(C(N)=O)cc2cc(F)cc(-c3ccc(F)cc3)c21` [Example 2, 5-Fluoro-7-(4-fluoro-phenyl)-1-methylindole-2-carboxamide] are 156 °C and 1.4 µM. In turn, `NC(=O)c1cc2cc(F)cc(-c3ccc(F)cc3)c2[nH]1` [Example 3, 5-Fluoro-7-(4-fluoro-phenyl)-1H-indole-2-carboxamide] showed a melting point of 162 °C. The same molecule showed an EC (150% of control) in data set [1] (setting [2]) of 0.18 µM. Molecule `Cc1c(C(N)=O)n(C)c2c(-c3ccc(F)cc3)cc(C#N)cc12` [Example 4, 5-Cyano-7-(4-fluorophenyl)-1,3-dimethylindole-2-carboxamide] yielded a melting point of 216 °C. The molecule also returned an EC (150% of control) in data set [1] (setting [2]) of 0.21 µM. With `Cc1c(C(N)=O)n(C)c2c(-c3ccc(F)c(F)c3)cc(C#N)cc12` [Example 5, 5-Cyano-7-(3,4-difluorophenyl)-1,3-dimethylindole-2-carboxamide], the melting point was 212 °C. The molecule further had an EC (150% of control) in data set [1] (setting [2]) of 0.35 µM. In the same order, the values of `Cc1c(C(N)=O)n(C)c2c(-c3ccc(C(F)(F)F)cc3)cc(C#N)cc12` [Example 6, 5-Cyano-1,3-dimethyl-7-[4-(trifluoromethyl)-phenyl]-indole-2-carboxamide] are 195 °C and 2.7 µM. Molecule `Cc1c(C(N)=O)[nH]c2c(-c3ccc(F)c(F)c3)cc(C#N)cc12` [Example 7, 5-Cyano-7-(3,4-difluorophenyl)-3-methyl-1H-indole-2-carboxamide] showed a melting point of 222 °C. Besides, the EC (150% of control) in data set [1] (setting [2]) worked out at 0.3 µM. On to `Cc1c(C(N)=O)[nH]c2c(-c3ccc(C(F)(F)F)cc3)cc(C#N)cc12` [Example 8, 5-Cyano-3-methyl-7-[4-(trifluoromethyl)phenyl]-1H-indole-2-carboxamide], for which the melting point is 243 °C. The same molecule showed an EC (150% of control) in data set [1] (setting [2]) of 0.4 µM.

Consider `Cc1c(C(N)=O)[nH]c2c(-c3ccc(F)cc3)cc(C#N)cc12` [Example 9, 5-Cyano-7-(4-fluorophenyl)-3-methyl-1H-indole-2-carboxamide], for which the melting point worked out at 268 °C. For the same molecule, the EC (150% of control) in data set [1] (setting [2]) is 0.22 µM. Taken in the same sequence, the figures for `Cc1c(C(N)=O)[nH]c2c(-c3ccc(Cl)cc3)cc(C#N)cc12` [Example 10, 7-(4-Chlorophenyl)-5-cyano-3-methyl-1H-indole-2-carboxamide] were 291 °C and 0.21 µM. Taken in the same sequence, the figures for `Cc1c(C(N)=O)[nH]c2c(-c3ccc(F)cc3)cc(Cl)cc12` [Example 11, 5-Chloro-7-(4-fluorophenyl)-3-methyl-1H-indole-2-carboxamide] were 173 °C and 0.22 µM. In the same order, the values of `Cc1c(C(N)=O)[nH]c2c(-c3ccc(Cl)cc3)cc(Cl)cc12` [Example 12, 5-Chloro-7-(4-chlorophenyl)-3-methyl-1H-indole-2-carboxamide] are 252 °C and 0.31 µM. In turn, `Cc1c(C(N)=O)n(C)c2c(-c3ccc(F)cc3)cc(Cl)cc12` [Example 13, 5-Chloro-7-(4-fluorophenyl)-1,3-dimethylindole-2-carboxamide] came in with a melting point of 178 °C. This molecule also registered an EC (150% of control) in data set [1] (setting [2]) of 1.64 µM. `Cc1c(C(N)=O)n(C)c2c(-c3ccc(Cl)cc3)cc(Cl)cc12` [Example 14, 5-Chloro-7-(4-chlorophenyl)-1,3-dimethylindole-2-carboxamide] yielded a melting point of 195 °C. The molecule also gave an EC (150% of control) in data set [1] (setting [2]) of 0.84 µM. Taken in the same sequence, the figures for `Cc1c(C(N)=O)[nH]c2c(-c3ccc(F)c(F)c3)cc(Cl)cc12` [Example 15, 5-Chloro-7-(3,4-difluorophenyl)-3-methyl-1H-indole-2-carboxamide] were 206 °C and 0.64 µM. `Cc1c(C(N)=O)[nH]c2c(-c3ccc(C(F)(F)F)cc3)cc(Cl)cc12` [Example 16, 5-Chloro-3-methyl-7-[4-(trifluoromethyl)-phenyl]-1H-indole-2-carboxamide] gave a melting point of 184 °C. The same molecule registered an EC (150% of control) in data set [1] (setting [2]) of 0.75 µM. Taken in the same sequence, the figures for `Cc1c(C(N)=O)n(C)c2c(-c3ccc(F)c(F)c3)cc(Cl)cc12` [Example 17, 5-Chloro-7-(3,4-difluorophenyl)-1,3-dimethylindole-2-carboxamide] were 196 °C and 3.3 µM.

In the case of `Cc1c(C(N)=O)n(C)c2c(-c3ccc(C(F)(F)F)cc3)cc(Cl)cc12` [Example 18, 5-Chloro-1,3-dimethyl-7-[4-(trifluoromethyl)phenyl]indole-2-carboxamide], the melting point came to 206 °C. Moreover, in data set [1] (setting [2]), the EC (150% of control) stood at 2.8 µM. `Cc1c(C(N)=O)[nH]c2c(-c3ccc(OC(F)(F)F)cc3)cc(C#N)cc12` [Example 19, 5-Cyano-3-methyl-7-[4-(trifluoromethoxy)-phenyl]-1H-indole-2-carboxamide] returned a melting point of 207 °C. This molecule also came in with an EC (150% of control) in data set [1] (setting [2]) of 1.13 µM.

Take `Cc1c(C(N)=O)[nH]c2c(-c3ccc(C#N)cc3)cc(C#N)cc12` [Example 20, 5-Cyano-7-(4-cyanophenyl)-3-methyl-1H-indole-2-carboxamide]: the melting point is 294 °C. For the same molecule, the EC (150% of control) in data set [1] (setting [2]) is 0.24 µM. For `Cc1c(C(N)=O)n(C)c2c(-c3ccc(OC(F)(F)F)cc3)cc(C#N)cc12` [Example 21, 5-Cyano-1,3-dimethyl-7-[4-(trifluoromethoxy)phenyl]indole-2-carboxamide], the melting point was determined as 106 °C. Also, the EC (150% of control) in data set [1] (setting [2]) came out at 0.43 µM.

`Cc1c(C(N)=O)n(C)c2c(-c3ccc(C#N)cc3)cc(C#N)cc12` [Example 22, 5-Cyano-7-(4-cyanophenyl)-1,3-dimethylindole-2-carboxamide] returned a melting point of 226 °C. The same molecule registered an EC (150% of control) in data set [1] (setting [2]) of 0.6 µM. Taken in the same sequence, the figures for `Cc1c(C(N)=O)[nH]c2c(-c3ccc(C#N)cc3)cc(Cl)cc12` [Example 23] were 267 °C and 0.28 µM.

`Cc1c(C(N)=O)[nH]c2c(-c3ccc(OC(F)(F)F)cc3)cc(Cl)cc12` [Example 24, 5-Chloro-3-methyl-7-[4-(trifluoromethoxy)phenyl]-1H-indole-2-carboxamide] had a melting point of 149 °C. This molecule yielded an EC (150% of control) in data set [1] (setting [2]) of 1.32 µM. Taken in the same sequence, the figures for `Cc1c(C(N)=O)[nH]c2c(-c3ccc(F)cc3F)cc(Cl)cc12` [Example 25, 5-Chloro-7-(2,4-difluorophenyl)-3-methyl-1H-indole-2-carboxamide] were 196 °C and 0.21 µM.

For the molecule `Cc1c(C(N)=O)[nH]c2c(-c3ccc(Cl)cc3Cl)cc(Cl)cc12` [Example 26, 5-Chloro-7-(2,4-dichlorophenyl)-3-methyl-1H-indole-2-carboxamide], the melting point turned out to be 195 °C. For the same molecule, the EC (150% of control) in data set [1] (setting [2]) stood at 0.33 µM.

`Cc1c(C(N)=O)n(C)c2c(-c3ccc(OC(F)(F)F)cc3)cc(Cl)cc12` [Example 27, 5-Chloro-1,3-dimethyl-7-[4-(trifluoromethoxy)-phenyl]indole-2-carboxamide] returned a melting point of 181 °C. Moreover, in data set [1] (setting [2]), the EC (150% of control) turned out to be 3.67 µM.

`Cc1c(C(N)=O)n(C)c2c(-c3ccc(C#N)cc3)cc(Cl)cc12` [Example 28, 5-Chloro-7-(4-cyanophenyl)-1,3-dimethylindole-2-carboxamide] had a melting point of 199 °C. In data set [1] (setting [2]), the EC (150% of control) came to 1.06 µM. As for `Cc1c(C(N)=O)n(C)c2c(-c3ccc(F)cc3F)cc(Cl)cc12` [Example 29, 5-Chloro-7-(2,4-difluorophenyl)-1,3-dimethylindole-2-carboxamide], the melting point amounted to 220 °C. In data set [1] (setting [2]), this molecule registered an EC (150% of control) of 0.23 µM. In the same order, the values of `Cc1c(C(N)=O)n(C)c2c(-c3ccc(Cl)cc3Cl)cc(Cl)cc12` [Example 30, 5-Chloro-7-(2,4-dichlorophenyl)-1,3-dimethylindole-2-carboxamide] are 221 °C and 0.93 µM.

(Values after patent US9464049B2, “Indole-carboxamides” (Hoffmann-La Roche Inc., priority 2013, dated 2016).)
